Experimental data reported in patent EP3345917A1, “ANTIPROTOZOAL COMPOUNDS” (Bacoba AG, priority 2017, dated 2018).
Where two headings read alike, the source gives them in different places. Non-standard residues stand in square brackets, D forms with d. Residues, ends and D or L forms follow the SMILES beside them. *: point of attachment. CH3O(CH2CH2O)11CH2CH2CO = COCCOCCOCCOCCOCCOCCOCCOCCOCCOCCOCCOCCC(=O)*; Hexenoyl(2E,4S-Me) = CC[C@H](C)/C=C/C(=O)*; Leu(3R-OH) = CC(C)[C@@H](O)[C@H](N)C(=O)O; NH((S)CH(Me)CH2NMe2) = C[C@@H](CN(C)C)N*; NH(1-CH2NMe2-cBu) = CN(C)CC1(N*)CCC1; Gly(octyl) = CCCCCCCC[C@H](N)C(=O)O; Oxazole4CO(2-Me) = Cc1nc(C(=O)*)co1; X3 = O=C(c1coc(-c2ccccc2)n1)*; Morpholide = C1CN(*)CCO1; X24 = CN1CC2(C1)CN(*)C2; X25 = CN(C)CC1(N*)CCCC1; X23 = CN1CCC12CN(*)C2; Aib = CC(C)(N)C(=O)O; βAla = NCCC(=O)O

What was measured:
[1] = test system: Trypanosoma brucei rhodesiense (STIB 900 strain); experiment: Alamar Blue assay against Trypanosoma brucei rhodesiense grown in axenic medium; format: cell-based
Procedure: (§1) Tests were done in triplicate.
Trypanosoma brucei rhodesiense (STIB 900) were grown in axenic medium as described by Baltz et al. (1985) The samples were tested using the Alamar Blue assay protocol (Baltz T et al. EMBO J 1985; 4:1273-1277) to determine the 50% inhibitory concentration (IC50). […] Melarsoprol (Arsobal®, Sanofi-Aventis, Switzerland) was used as a reference drug (IC50= 0.03 ± 0.01 µM). Its purity was over 95 %, as was certified by the supplier. The IC50 values were calculated by using Softmax Pro software (Molecular Devices Cooperation, Sunnyvale, CA).

[2] = test system: Trypanosoma cruzi trypomastigote forms (Tulahuen strain); experiment: Intracellular Trypanosoma cruzi assay in L6-cells, beta-galactosidase/CPRG readout; format: cell-based
Procedure: as §1
Trypanosoma cruzi trypomastigote forms (Tulahuen strain C2C4 containing β-galactosidase (Lac Z) gene) were cultured as described by Buckner et al. (Buckner FS et al. Antimicrob Agents Ch1996; 40: 2592-2597) in rat myoblast cells (L6-cells). […] After incubation, the substrate chlorophenyl red β-D-galactopyranoside agent CPRG/Nonident was added to all wells and a color change was developed within 2 to 6 h. The plates were read photometrically at 540 nm (Molecular Devices). Data were evaluated and IC50 values calculated using Softmax Pro software (Molecular Devices).

[3] = test system: Axenically grown Leishmania donovani amastigotes (strain MHOM/ET/67/L82); experiment: Axenic Leishmania donovani amastigote resazurin assay; format: cell-based
Procedure: as §1
Axenically grown Leishmania donovani amastigotes (strain MHOM/ET/67/L82) were grown and tests were done as previously described using the resazurin assay (Räz B et al. Acta Tropica 1997, 68:139-147). The plates were developed for 2-4 hours and read on a Spectramax Gemini XS micro plate fluorometer (Molecular Devices Cooperation) using an excitation wavelength of 536 nm and emission wavelength of 588 nm. Fluorescence development was measured and expressed as percentage of the negative control. […] Data were transferred to the graphic programme Softmax Pro (Molecular Devices), with which IC50 values were calculated.

Plasmodium falciparum = experiment: 3H-hypoxanthine incorporation assay against Plasmodium falciparum; format: cell-based; conditions: In vitro inhibition, read-out: P.falc NF5
Procedure: as §1
IC50 values were calculated by linear interpolation.

[4] = Cytotoxicity assay on L6-cells (Alamar Blue); conditions: rat, Cytotox L6, Cytotoxicity against rat myoblast cells (L6)
[5] = In vitro inhibition, read-out: T.b.rhod.
[6] = In vitro inhibition, read-out: T.cruzi.
[7] = In vitro inhibition, read-out: L.don. ax

Row | Compound | IC50 [1, 5] [nM] | IC50 [2, 6] [nM] | IC50 [3, 7] [nM] | IC50 at 70 h [4] [nM] | other results
1 | CCCCCCCC[C@H](NC(=O)[C@@H]1CCCN1C(=O)/C=C/[C@@H](C)CC)C(=O)N[C@@H](CO)C(=O)NC(C)(C)C(=O)N[C@@H](CC(C)C)C(=O)N[C@@H](CC(C)C)C(=O)NC(C)(C)C(=O)NC(C)(C)C(=O)NCCC(=O)N[C@@H](C)CN(C)C (stereo in doubt) [Compound 5521, (2S)-N-[(1S)-1-[(1-{[(1S)-1-{[(1S)-1-{[1-({1-[(2-{[(2S)-1-(dimethylamino)propan-2-yl]carbamoyl}ethyl)carbamoyl]-1-methylethyl}carbamoyl)-1-methylethyl]carbamoyl}-3-methylbutyl]carbamoyl}-3-methylbutyl]carbamoyl}-1-methylethyl)carbamoyl]-2-hydroxyethyl]-2-{[(2S)-1-[(2E,4S)-4-methylhex-2-enoyl]pyrrolidin-2-yl]formamido}decanamide] | 1.3 | 807 | 3.6 | 1650 | IC50 (Plasmodium falciparum): 8.5 nM
2 | O=C(Cn1ccnc1[N+](=O)[O-])NCc1ccccc1 [Benznidazol] |  |  |  |  | IC50 ([2]; TULAHUEN, In vitro inhibition, intracellular Trypanosoma cruzi, read-out: T.cruzi.): 2080 nM
3 | O=C(Cn1ccnc1[N+](=O)[O-])NCc1ccccc1 [Benznidazole, benznidazole] |  |  |  |  | IC50 ([2]; Trypanosoma cruzi, standard drug, T. cruzi Tulahuen C2C4 in L6-cells, read-out: IC50): 0.48 µg/mL
4 | CCCCCCCC[C@H](NC(=O)[C@@H]1CCCN1C(=O)/C=C/[C@@H](C)CC)C(=O)N[C@H](C(=O)NC(C)(C)C(=O)N[C@@H](CC(C)C)C(=O)N[C@@H](CC(C)C)C(=O)NC(C)(C)C(=O)NC(C)(C)C(=O)NCCC(=O)N[C@@H](C)CN(C)C)[C@@H](C)O [Compound 5520] ({Hexenoyl(2E,4S-Me)}-P[Gly(octyl)]T[Aib]LL[Aib][Aib][βAla]-{NH((S)CH(Me)CH2NMe2)}) |  |  |  | 930 | 
5 | CCCCCCCC[C@H](NC(=O)[C@@H]1CCCN1C(=O)/C=C/[C@@H](C)CC)C(=O)N[C@H](C(=O)NC(C)(C)C(=O)N[C@@H](CC(C)C)C(=O)N[C@@H](CC(C)C)C(=O)NC(C)(C)C(=O)NC(C)(C)C(=O)NCCC(=O)N1CCOCC1)[C@H](O)C(C)C [Compound 5572] ({Hexenoyl(2E,4S-Me)}-P[Gly(octyl)][Leu(3R-OH)][Aib]LL[Aib][Aib][βAla]-Morpholide) |  |  |  | 1420 | 
6 | CCCCCCCC[C@H](NC(=O)[C@@H]1CCCN1C(=O)c1coc(-c2ccccc2)n1)C(=O)N[C@@H](CC(C)C)C(=O)NC(C)(C)C(=O)N[C@@H](CC(C)C)C(=O)N[C@@H](CC(C)C)C(=O)NC(C)(C)C(=O)NC(C)(C)C(=O)NCCC(=O)N[C@@H](C)CN(C)C [Compound 5906, (2S)-N-[(1S)-1-[(1-{[(1S)-1-{[(1S)-1-{[1-({1-[(2-{[(2S)-1-(dimethylamino)propan-2-yl]carbamoyl}ethyl)carbamoyl]-1-methylethyl}carbamoyl)-1-methylethyl]carbamoyl}-3-methylbutyl]carbamoyl}-3-methylbutyl]carbamoyl}-1-methylethyl)carbamoyl]-3-methylbutyl]-2-{[(2S)-1-(2-phenyl-1,3-oxazole-4-carbonyl)pyrrolidin-2-yl]formamido}decanamide] (X3-P[Gly(octyl)]L[Aib]LL[Aib][Aib][βAla]-{NH((S)CH(Me)CH2NMe2)}) |  |  |  | 445 | 
7 | CCCCCCCC[C@H](NC(=O)[C@@H]1CCCN1C(=O)CCOCCOCCOCCOCCOCCOCCOCCOCCOCCOCCOCCOC)C(=O)N[C@@H](CC(C)C)C(=O)NC(C)(C)C(=O)N[C@@H](CC(C)C)C(=O)N[C@@H](CC(C)C)C(=O)NC(C)(C)C(=O)NC(C)(C)C(=O)NCCC(=O)N[C@@H](C)CN(C)C [Compound 6067, (2S)-N-[(1S)-1-[(1-{[(1S)-1-{[(1S)-1-{[1-({1-[(2-{[(2S)-1-(dimethylamino)propan-2-yl]carbamoyl}ethyl)carbamoyl]-1-methylethyl}carbamoyl)-1-methylethyl]carbamoyl}-3-methylbutyl]carbamoyl}-3-methylbutyl]carbamoyl}-1-methylethyl)carbamoyl]-3-methylbutyl]-2-{[(2S)-1-(2,5,8,11,14,17,20,23,26,29,32,35-dodecaoxaoctatriacontanoyl)pyrrolidin-2-yl]formamido}decanamide] ({CH3O(CH2CH2O)11CH2CH2CO}-P[Gly(octyl)]L[Aib]LL[Aib][Aib][βAla]-{NH((S)CH(Me)CH2NMe2)}) |  |  |  | 4640 | 
8 | CCCCCCCC[C@H](NC(=O)[C@@H]1CCCN1C(=O)c1coc(C)n1)C(=O)N[C@@H](CC(C)C)C(=O)NC(C)(C)C(=O)N[C@@H](CC(C)C)C(=O)N[C@@H](CC(C)C)C(=O)NC(C)(C)C(=O)NC(C)(C)C(=O)NCCC(=O)NC1(CN(C)C)CCC1 [Compound 6253, (2S)-N-[(1S)-1-[(1-{[(1S)-1-{[(1S)-1-({1-[(1-{[2-({1-[(dimethylamino)methyl]cyclobutyl}carbamoyl)ethyl]carbamoyl}-1-methylethyl)carbamoyl]-1-methylethyl}carbamoyl)-3-methylbutyl]carbamoyl}-3-methylbutyl]carbamoyl}-1-methylethyl)carbamoyl]-3-methylbutyl]-2-{[(2S)-1-(2-methyl-1,3-oxazole-4-carbonyl)pyrrolidin-2-yl]formamido}decanamide] ({Oxazole4CO(2-Me)}-P[Gly(octyl)]L[Aib]LL[Aib][Aib][βAla]-{NH(1-CH2NMe2-cBu)}) | < 0.9 | 68.4 | 46800 |  | 
9 | CCCCCCCC[C@H](NC(=O)[C@@H]1CCCN1C(=O)c1coc(C)n1)C(=O)N[C@@H](CC(C)C)C(=O)NC(C)(C)C(=O)N[C@@H](CC(C)C)C(=O)N[C@@H](CC(C)C)C(=O)NC(C)(C)C(=O)NC(C)(C)C(=O)NCCC(=O)NC1(CN(C)C)CCCC1 [Compound 6254, (2S)-N-[(1S)-1-[(1-{[(1S)-1-{[(1S)-1-({1-[(1-{[2-({1-[(dimethylamino)methyl]cyclopentyl}carbamoyl)ethyl]carbamoyl}-1-methylethyl)carbamoyl]-1methylethyl}carbamoyl)-3-methylbutyl]carbamoyl}-3-methylbutyl]carbamoyl}-1-methylethyl)carbamoyl]-3-methylbutyl]-2-{[(2S)-1-(2-methyl-1,3-oxazole-4-carbonyl)pyrrolidin-2-yl]formamido}decanamide] ({Oxazole4CO(2-Me)}-P[Gly(octyl)]L[Aib]LL[Aib][Aib][βAla]-X25) | < 0.8 | 34.6 | 13900 |  | 
10 | CCCCCCCC[C@H](NC(=O)[C@@H]1CCCN1C(=O)c1coc(C)n1)C(=O)N[C@@H](CC(C)C)C(=O)NC(C)(C)C(=O)N[C@@H](CC(C)C)C(=O)N[C@@H](CC(C)C)C(=O)NC(C)(C)C(=O)NC(C)(C)C(=O)NCCC(=O)N1CC2(CCN2C)C1 [Compound 6255, (2S)-2-{[(2S)-1-(2-methyl-1,3-oxazole-4-carbonyl)pyrrolidin-2-yl]formamido}-N-[(1S)-3-methyl-1-[(1-methyl-1-[(1S)-3-methyl-1-{[(1S)-3-methyl-1-{{[1-methyl-1-({1-methyl-1-[(3-{1-methyl-1,6-diazaspiro[3.3]heptan-6-yl}-3-oxopropyl)carbamoyl]ethyl}carbamoyl)ethyl]carbamoyl}butyl]carbamoyl}butyl]carbamoyl}ethyl)carbamoyl]butyl]decanamide] ({Oxazole4CO(2-Me)}-P[Gly(octyl)]L[Aib]LL[Aib][Aib][βAla]-X23) | 461 | 3710 | 4090 | 7170 | 
11 | CCCCCCCC[C@H](NC(=O)[C@@H]1CCCN1C(=O)c1coc(C)n1)C(=O)N[C@@H](CC(C)C)C(=O)NC(C)(C)C(=O)N[C@@H](CC(C)C)C(=O)N[C@@H](CC(C)C)C(=O)NC(C)(C)C(=O)NC(C)(C)C(=O)NCCC(=O)N1CC2(CN(C)C2)C1 [Compound 6256, (2S)-2-{[(2S)-1-(2-methyl-1,3-oxazole-4-carbonyl)pyrrolidin-2-yl]formamido}-N-[(1S)-3-methyl-1-[(1-methyl-1-[(1S)-3-methyl-1-{[(1S)-3-methyl-1-{{[1-methyl-1-({1-methyl-1-[(3-{6-methyl-2,6-diazaspiro[3.3]heptan-2-yl}-3-oxopropyl)carbamoyl]ethyl}carbamoyl)ethyl]carbamoyl}butyl]carbamoyl}butyl]carbamoyl}ethyl)carbamoyl]butyl]decanamide] ({Oxazole4CO(2-Me)}-P[Gly(octyl)]L[Aib]LL[Aib][Aib][βAla]-X24) | 316 | 4010 | 8670 | > 8060 | 
12 | Nc1nc(N)nc(Nc2ccc([As]3SCC(CO)S3)cc2)n1 (stereo not shown) [Melarsoprol, melarsoprol] |  |  |  |  | IC50 ([1]; read-out: T.b.rhod.): 7 nM; IC50 ([1]; reference drug, T. b. rhodesiense STIB 900, Alamar Blue, read-out: IC50): 30 ± 10 nM
13 | CCCCCCCCCCCCCCCCOP(=O)([O-])OCC[N+](C)(C)C [Miltfosine] |  |  |  |  | IC50 ([3]; Leishmania donovani, reference drug, axenic L. donovani amastigotes, resazurin assay, read-out: IC50): 0.241 µg/mL
